# Measurements taken from patent US20050272824A1, “Methods for monitoring combretastatin resistance” (priority 2004, published 2005).
# Entries after “also recorded” stand apart in the source; their conditions may differ. Where two headings read alike, the source gives them in different places.
# Experiments:
# [1] = tested on: CEM; experiment: In vitro cytotoxicity (modified MTT) assay, CEM; type: cell-based; details: Acute Lymphoblastic Leukemia, MTT after 48 h, average of three independent experiments in triplicate
# Method: (§1) A panel of cells lines obtained from American Type Culture Collection (Rockville, Md., USA) was initially assayed against CA-4 to screen for drug sensitivity. The human non-small cell lung carcinoma (NSCLC), NCI-H460, was selected for resistance based on significant cytotoxicity. H460 cells were grown and maintained in RPMI-1640 supplemented with penicillin-streptomycin, Fungizone® and 10% heat inactivated fetal bovine serum (Invitrogen, Carlsbad, Calif., USA) and maintained at 37° C. humidified 5% CO2 atmosphere. H460 parental cell line was selected for resistance to CA-4, paclitaxel or vinblastine by incubation with stepwise increments of each drug, beginning at 2 nM. Cells were treated with the drugs for 24 h, once a week, and every 2-3 weeks, drug dose was increased by 2 nM increments until 30 nM drug resistance was reached. To select non-MDR resistant cell lines, cells were evolved in the presence of verapamil, an inhibitor of P-glycoprotein (P-gp) drug efflux pump that produces a MDR phenotype. Resistance was maintained by acute 24 h exposure to the corresponding drug and verapamil once a month. […]
# (§2) Cytoxicity assays was assessed using a modified MTT assay (Mosmann, 1983). […] Percentage survival was calculated as the OD560 of the treated sample divided by the OD560 of the untreated control cell line. […]
# [2] = tested on: MOLT4; experiment: In vitro cytotoxicity (modified MTT) assay, MOLT4; type: cell-based; details: MOLT4, Acute Lymphoblastic Leukemia; MTT after 48 h; average of three independent experiments in triplicate
# Method: as §1, §2
# [3] = tested on: HT29; experiment: In vitro cytotoxicity (modified MTT) assay, HT29; type: cell-based; details: HT29, Colorectal Adenocarcinoma; MTT after 48 h; average of three independent experiments in triplicate
# Method: as §1, §2
# [4] = tested on: MCF7; experiment: In vitro cytotoxicity (modified MTT) assay, MCF7; type: cell-based; details: MCF7, Mammary Gland Adenocarcinoma; MTT after 48 h; average of three independent experiments in triplicate
# Method: as §1, §2
# [5] = tested on: NCI-H460; experiment: In vitro cytotoxicity (modified MTT) assay, H460 parental; type: cell-based, human; details: MTT after 48 h
# Method: (§3) A panel of cells lines obtained from American Type Culture Collection (Rockville, Md., USA) was initially assayed against CA-4 to screen for drug sensitivity. The human non-small cell lung carcinoma (NSCLC), NCI-H460, was selected for resistance based on significant cytotoxicity. H460 cells were grown and maintained in RPMI-1640 supplemented with penicillin-streptomycin, Fungizone® and 10% heat inactivated fetal bovine serum (Invitrogen, Carlsbad, Calif., USA) and maintained at 37° C. humidified 5% CO2 atmosphere. H460 parental cell line was selected for resistance to CA-4, paclitaxel or vinblastine by incubation with stepwise increments of each drug, beginning at 2 nM. Cells were treated with the drugs for 24 h, once a week, and every 2-3 weeks, drug dose was increased by 2 nM increments until 30 nM drug resistance was reached. To select non-MDR resistant cell lines, cells were evolved in the presence of verapamil, an inhibitor of P-glycoprotein (P-gp) drug efflux pump that produces a MDR phenotype. Resistance was maintained by acute 24 h exposure to the corresponding drug and verapamil once a month. All cells used for the experiments were grown logarithmically in drug-free medium at least a week before experiments.
# (§4) Cytoxicity assays was assessed using a modified MTT assay (Mosmann, 1983). MTT (3-(4,5-dimethylthiazol-2-yl)-2,5-diphenyl tetrazolium bromide, MTT) was purchased from Sigma (St. Louis, Mo., USA). For each drug treatment, triplicate wells were seeded (5.0×10^3/well) and conditioned overnight. Drugs were prepared by serial dilution with RPMI media and added to the corresponding wells. After 48 h, the MTT assay was performed. Percentage survival was calculated as the OD560 of the treated sample divided by the OD560 of the untreated control cell line. Cell lines were tested with cisplatin to test for non-MDR phenotype.
# To select a moderately sensitive cell line for drug-resistance, a panel of susceptible tumor cell lines was screened for CA-4 cytotoxicity. Table 1 depicts the average in vitro cytotoxicity (IC50) values for three independent experiments with each experiment run in triplicate.
# [6] = tested on: BXPC3; experiment: In vitro cytotoxicity (modified MTT) assay, BXPC3; type: cell-based; details: BXPC3, Pancreatic Adenocarcinoma; MTT after 48 h; average of three independent experiments in triplicate
# Method: as §1, §2
# [7] = tested on: DU145; experiment: In vitro cytotoxicity (modified MTT) assay, DU145; type: cell-based; details: DU145, Prostate Carcinoma; MTT after 48 h; average of three independent experiments in triplicate
# Method: as §1, §2
# [8] = tested on: C30 (H460 cells selected at 30 nM CA-4); experiment: In vitro cytotoxicity assay of resistant cell line C30; type: cell-based, human; details: for IC50: C30 cells (H460 selected at 30 nM CA-4), MTT after 48 h; for C30 Resistance Factor: C30 cells relative to parental H460
# Method: as §3, with “The human non-small cell lung carcinoma (NSCLC), NCI-H460, was selected for resistance based on significant cytotoxicity.” left out
# as §4
# (§5) C30, P30, and V30 cell lines represent H460 parental cells selected at 30 nM CA-4, paclitaxel, and vinblastine, respectively. […] Cisplatin, an anti-cancer agent with a non-tubulin-binding mode of action was assayed against the cell lines to test for […].
# [9] = tested on: P30 (H460 cells selected at 30 nM paclitaxel); experiment: In vitro cytotoxicity assay of resistant cell line P30; type: cell-based, human; details: for IC50: P30 cells (H460 selected at 30 nM paclitaxel), MTT after 48 h; for P30 Resistance Factor: P30 cells relative to parental H460
# Method: as §3, with “The human non-small cell lung carcinoma (NSCLC), NCI-H460, was selected for resistance based on significant cytotoxicity.” left out
# as §4, §5
# [10] = tested on: V30 (H460 cells selected at 30 nM vinblastine); experiment: In vitro cytotoxicity assay of resistant cell line V30; type: cell-based, human; details: for IC50: V30 cells (H460 selected at 30 nM vinblastine), MTT after 48 h; for V30 Resistance Factor: V30 cells relative to parental H460
# Method: as §3, with “The human non-small cell lung carcinoma (NSCLC), NCI-H460, was selected for resistance based on significant cytotoxicity.” left out
# as §4, §5
# [11] = H460 parental cells, Table 2, read-out: H460 wild-type IC50
# [12] = Homo sapiens, NCI-H460, H460 parental cells, Table 2, read-out: H460 wild-type IC50
Structure (SMILES),"IC50 [5, 11] [nM]",IC50 [8] [nM],IC50 [9] [nM],IC50 [10] [nM],"IC50 [5, 12] [nM]",C30 Resistance Factor [8],"IC50 ([8]; Homo sapiens, NCI-H460) [nM]","IC50 ([9]; Homo sapiens, NCI-H460) [nM]",P30 Resistance Factor [9],"IC50 ([10]; Homo sapiens, NCI-H460) [nM]",V30 Resistance Factor [10],other results
"COc1ccc(/C=C\c2cc(OC)c(OC)c(OC)c2)cc1O [CA-4, Combretastatin A-4]",7 ± 0.6,19,8.5 ± 0.2,9.2 ± 0.6,,,,,,,,"IC50 [1]: 0.25 nM; IC50 [2]: 4.1 nM; IC50 [3]: 55100 nM; IC50 [4]: 165000 nM; IC50 ([5]; H460, Non-Small Cell Lung Carcinoma, Table 1 screen, average of three independent experiments in triplicate, read-out: IC50): 7.3 nM; IC50 [6]: 57000 nM; IC50 [7]: 7.7 nM"
N.N.[Cl][Pt][Cl] [Cisplatin],20 ± 2.6,16.7 ± 3.2,25.3 ± 3.1,21.7 ± 0.6,,,,,,,,
CC(=O)O[C@H]1C(=O)[C@@]2(C)[C@H]([C@H](OC(=O)c3ccccc3)[C@]3(O)C[C@H](OC(=O)[C@H](O)[C@@H](NC(=O)c4ccccc4)c4ccccc4)C(C)=C1C3(C)C)[C@]1(OC(C)=O)CO[C@@H]1C[C@@H]2O [Paclitaxel],,,,,8.1 ± 0.4,9.9 ± 0.6,80 ± 2,77 ± 4.9,9.6 ± 1.0,87 ± 3.6,10.8 ± 1.0,C30 Resistance Factor ([8]; listed as paclitaxel): tenfold; P30 Resistance Factor ([9]; listed as paclitaxel): tenfold; V30 Resistance Factor ([10]; listed as paclitaxel): eleven fold; also recorded: tenfold
CC[C@]1(O)C[C@@H]2CN(CCc3c([nH]c4ccccc34)[C@@](C(=O)OC)(c3cc4c(cc3OC)N(C)[C@H]3[C@@](O)(C(=O)OC)[C@H](OC(C)=O)[C@]5(CC)C=CCN6CC[C@]43[C@@H]65)C2)C1 [Vinblastine],,,,,5.9 ± 0.1,1.0 ± 0.0,6 ± 0.3,15.7 ± 4.2,2.7 ± 0.7,26.3 ± 2.1,4.5 ± 0.4,C30 Resistance Factor ([8]; listed as vinblastine): negligibly resistant; P30 Resistance Factor ([9]; listed as vinblastine): threefold; V30 Resistance Factor ([10]; listed as vinblastine): fivefold
